Laboratory results reported in PMC6268972, “Antiproliferative, Antimicrobial and Apoptosis Inducing Effects of Compounds Isolated from Inula viscosa” (Molecules, 2012).
Values after ≈ are worked out from the molar mass of the structure shown. “Also recorded” adds a separate entry of the source.

Assays:
MCF-7 cells [1] = assay: MTT antiproliferative activity assay, MCF-7; format: cell-based, human; conditions: Homo sapiens, MCF7; MTT, 48 h treatment, average of three replicates; read-out: IC50 MCF-7
Method: Hep-2 (larynx carcinoma, ATCC: CCL-23), MCF-7 (breast epithelial adenocarcinoma, ATCC: HTB-22), and Vero (African green monkey kidney, ATCC: CCL-81) cell lines were kindly provided by Dr. Mona Hassuneh (Department of Biological Sciences, University of Jordan). Cells were grown in Minimum Essential Medium Eagle (Gibco, Paisley UK) supplemented with 10% heat inactivated fetal bovine serum (Gibco, Paisley UK), 29 μg/mL L-glutamine, and 40 μg/mL gentamicin. Cells were incubated in a humidified atmosphere of 5% CO2 at 37 °C.
The antiproliferative activity of Inula viscosa compounds was measured using the MTT (3-(4,5-dimethylthiazol-2-yl)-2,5-diphenyltetrazolium bromide) assay (Promega, Madison, WI, USA). The assay detects the reduction of MTT by mitochondrial dehydrogenase to blue formazan product, which reflects the normal function of mitochondria and cell viability. Exponentially growing cells were washed and seeded at 17,000 cells/well for Hep-2 cell line and 11,000 cells/ well for MCF-7 cell line (in 200 μL of growth medium) in 96 well microplates (Nunc, Roskilde, Denmark). After 24 h incubation, a partial monolayer was formed then the media was removed and 200 μL of the medium containing the compound (initially dissolved in DMSO) were added and re-incubated for 48 h. Then 100 μL of the medium were aspirated and 15 μL of the MTT solution were added to the remaining medium (100 μL) in each well. After 4 h contact with the MTT solution, blue crystals were formed. One hundred μL of the stop solution were added and incubated further for 1 h.
Reduced MTT was assayed at 550 nm using a microplate reader (Biotek, Winooski, VT, USA). Control groups received the same amount of DMSO (0.1%).Untreated cells were used as a negative control while, cells treated with vincristine sulfate were used as a positive control. Eight concentrations (150, 100, 50, 20, 10, 5, 2, and 1 μg/mL) were prepared from each compound and tested against the three cell lines. IC50 values were calculated as the concentrations that show 50% inhibition of proliferation on any tested cell line. Stock solutions of the compounds were dissolved in (DMSO) then diluted with the medium and sterilized using 0.2 μm membrane filters. The toxicity of DMSO was determined and the final dilution of compounds used for treating the cells contained not more than 0.1% (non toxic concentration) DMSO. IC50 values were reported as the average of three replicates. The antiproliferative effect of the tested compounds was determined by comparing the optical density of the treated cells against the optical density of the control (cells treated with media containing 0.1% DMSO).

Bacillus cereus [2] = assay: Scanning electron microscopy of Bacillus cereus cells; format: cell-based; conditions: 62.5 µg/mL, 24 h
Method: (§1) MCF-7 cells were cultured in complete DMEM containing either 15 µg/mL of 3-O-methylquercetin or 3,3′-di-O-methylquercetin and incubated for 48 h in humidified CO2 incubator. Negative control cells were incubated with complete DMEM and positive control cells received complete DMEM containing 40 nM vincristin sulfate. Treated cells were fixed with 3% glutaraldehyde for 1.5 h followed by osmium tetroxide (2% in PBS) for 1 h. After fixation, cells were washed in PBS and sequentially dehydrated using 30%, 70%, and 100% ethanol. Fixed cells were attached to a metal stubs and sputter coated with platinum by using Emitech K550X coating unit (Qourum Technology, West Sussex, UK). The coated specimens were viewed using Inspect F50/FEG scanning electron microscope (FEI, Eindhoven, The Netherlands) at accelerating voltage of 2–5 kV. Bacillus cereus cells treated with 3,3′-di-O-methylquercetin for 24 h were collected by centrifugation and washed with sodium phosphate buffer. Following that, the samples were fixed in 2.5% glutaraldehyde in 0.1 M phosphate buffer, pH 7.3, at 4 °C overnight, and postfixed in 1% osmium tetroxide in the phosphate buffer for 1 h at room temperature. Bacterial cells were dehydrated with sequential ethanol concentrations (30–100%) and coated for the observations under scanning electron microscope.

MCF-7 cells [3] = assay: Scanning electron microscopy of MCF-7 cells; format: cell-based, human; conditions: 15 µg/mL compound (vincristin sulfate 40 nM), 48 h
Method: as §1

Bacillus cereus [4] = assay: Microtiter plate dilution MIC, B. cereus; format: cell-based; conditions: Bacillus cereus; Toxigenic strain TS, 24 h, 100% inhibition; read-out: Minimum inhibitory concentration (MIC) B.c
Method: The microbial strains used in this study were Escherichia coli (ATCC 10798), Salmonella typhimurium (ATCC14028), Methicillin resistant Staphylococcus aureus (MRSA, Clinical isolate), Bacillus cereus (Toxigenic strain TS), and Candida albicans (ATCC 90028). Bacterial strains were stocked onto nutrient agar slant at 4 °C, and Candida albicans was stocked onto malt agar slant at 4 °C.
The microtiter plate dilution method was used to determine the MIC (minimum inhibitory concentration) of compounds under study. Sterile 96-well microplates (Nunc) were used for the assay. Stock compounds were dissolved in DMSO so that the final concentrations in micro wells were less than 1% DMSO and solvent controls were run at these concentrations. Positive controls of penicillin G and tetracycline (Oxoid, Hampshire, UK) were prepared at the following concentrations 2, 4, 8, 16, 31, 62.5, 125, and 250 μg/mL. 1% DMSO was used as a solvent control. Compounds were diluted to twice the desired initial test concentration (250 µg/mL) with Muller Hinton broth (MHB) (Oxoid). All wells, except the first were filled with MHB (50 μL). Compounds (100 μL) were added to the first well and serial two-fold dilutions were made down to the desired minimum concentration (2 μg/mL). An over-night culture of bacteria suspended in MHB was adjusted to turbidity equal to 0.5 McFarland standard. The plates were inoculated with bacterial suspension (50 μL/well) and incubated at 37 °C for 24 h. Then the turbidity was measured using micro-plate reader (Biotek) at 620 nm wavelength. The same procedure was used to determine the antifungal activity of compounds against Candida albicans. The medium used was malt extract broth. The yeast cells were suspended in 0.85% saline, with an optical density equivalent to 0.5 McFarland standard, and diluted 1:100 in malt extract broth to obtain the working concentration. After 24 h incubation with each compound, the turbidity was measured at 530 nm wavelength using a spectrophotometer (Biotek). Percentage inhibition for tested microorganisms was calculated using the following formula:
MIC was determined as the lowest concentration of the compound that causes complete inhibition (100%) of each microorganism.

## COc1cc(-c2oc3cc(O)cc(O)c3c(=O)c2OC)ccc1O [3,3′-di-O-Methylquercetin]
MCF-7 cells [1]
  IC50: 10.1 ± 1.15 µg/mL (≈ 30.6 µM)
Bacillus cereus [2]
  Morphological changes of bacterial cells (scanning electron microscopy): induced damage in bacterial cell walls and cytoplasmic membranes
Bacillus cereus [2]; listed as 3,3′-di-O-methylquercetin
  Morphological changes of bacterial cells (scanning electron microscopy): Damages on both the bacterial cell wall and the cytoplasmic membrane; also recorded: Leakage of intracellular constituents
MCF-7 cells [3]
  Cytomorphological alterations (scanning electron microscopy): cell shrinkage, membrane blebbing, loss of contact with neighboring cells, and formation of apoptotic bodies
Bacillus cereus [4]
  MIC: 62.5 µg/mL (≈ 189 µM)
